In paper PMC8749431 (mBio, 2022):

Legend:
[1] = system: pseudotyped VSVs harboring SARS-CoV S (SARS-Spp); assay: microbe, parasite or virus in culture; format: cell-based; conditions: for EC50: Severe acute respiratory syndrome coronavirus
[2] = system: pseudotyped VSVs harboring MERS-CoV S (MERS-Spp); format: cell-based

Compound	EC50 [1] [µM]	EC50 ([1]; Huh-7) [µM]	EC50 ([1]; MA104) [µM]	inhibition of SARS-Spp entry [1]	inhibition of MERS-Spp entry [2]
CN1CCN([C@@H](c2ccccc2)c2ccc(Cl)cc2)CC1 [(S)-CCZ, (S)-chlorcyclizine]	4.59	3.21	6.91		
CCN(CC)CCCC(C)Nc1ccnc2cc(Cl)ccc12 (stereo not shown) [Chloroquine, chloroquine]				inhibited	reduced
CCN1CCN(C(c2ccc(Cl)cc2)c2ccc(Cl)cc2)CC1 [Dichlorcyclizine, dichlorcyclizine]	5.76	0.87	9.92		
CCOC(=O)[C@H]1O[C@@H]1C(=O)N[C@@H](CC(C)C)C(=O)NCCC(C)C [E-64d]				inhibited	reduced
Cc1cc(-c2nc(CN3CCC(C(=O)NCCCN4C[C@H](C)C[C@H](C)C4)CC3)co2)ccc1F [Fluoxazolevir, fluoxazolevir]	1.46	1.75	6.49		
